Test results reported in patent US9000045B2, “CETP activity inhibitors” (Japan Tobacco Inc., priority 1997, dated 2015).

Columns and labels:
CETP [1] = target: T1, CETP (Homo sapiens, UniProt P11597); assay: Ex vivo CETP activity inhibitory effect of plasma from transgenic mice; set-up: from tissue; host or cells: plasma of transgenic mice carrying the human CETP gene; conditions: mouse, po, p.o., 6 hours after administration, transgenic mice with human CETP gene, read-out: CETP activity inhibitory rate in plasma from transgenic mouse
T1 sequence (P11597 18-493): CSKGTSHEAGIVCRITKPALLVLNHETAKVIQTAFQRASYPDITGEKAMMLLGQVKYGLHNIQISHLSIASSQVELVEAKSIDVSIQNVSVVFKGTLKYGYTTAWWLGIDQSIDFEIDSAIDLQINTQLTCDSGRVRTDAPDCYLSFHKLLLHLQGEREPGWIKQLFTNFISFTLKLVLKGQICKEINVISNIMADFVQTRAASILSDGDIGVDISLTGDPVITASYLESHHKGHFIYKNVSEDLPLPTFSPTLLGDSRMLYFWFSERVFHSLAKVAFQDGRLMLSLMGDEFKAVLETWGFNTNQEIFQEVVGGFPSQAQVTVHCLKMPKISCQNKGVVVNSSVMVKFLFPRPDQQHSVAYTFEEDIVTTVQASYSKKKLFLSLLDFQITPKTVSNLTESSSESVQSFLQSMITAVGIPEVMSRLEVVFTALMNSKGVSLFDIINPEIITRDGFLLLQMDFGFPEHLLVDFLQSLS
Method: Potassium bromide (KBr) was added to the plasma of healthy subjects (40 ml) to adjust specific gravity to d=1.125 g/ml. Density gradient centrifugation (227,000×g, 4° C., 17 hours) was conducted to obtain a fraction with specific gravity d>1.125 g/ml (HDL3 fraction). The fraction thus obtained was dialyzed against a PBS solution [10 mM Na2HPO4/10 mM NaH2PO4/0.15 M NaCl/1 mM EDTA (pH 7.4)]. Then, tritium-labeled cholesterol (10 nM) (50.3 Ci/mM) was dissolved in 95% ethanol and added gradually to the above HDL3 fraction under stirring. The solution was incubated for 18 hours at 37° C. [Tritium-labeled cholesterol was esterified by this procedure by the action of lecithin:cholesterol acyltransferase (LCAT) present on the surface of HDL3 and taken up into the interior of HDL3 as tritium-labeled cholesterylester ([^3H]CE)]. After incubation, KBr was added and specific gravity was adjusted to d=1.21 g/ml. Density gradient centrifugation (227,000×g, 4° C., 17 hours) was conducted and the fraction with d<1.21 g/ml was harvested. The fraction thus obtained was dialyzed against the above PBS solution to obtain HDL3 that took up [^3H]CE ([^3H]CE-HDL3, specific gravity: 1.125<d<1.21, specific activity: 101,000 dpm/nM), which served as donor lipoprotein.
Physiological saline (specific gravity d=1.006 g/ml) was layered upon the plasma of healthy subjects (100 ml). Density gradient centrifugation (227,000×g, 4° C., 4 hours) was conducted and the fraction with specific gravity d>1.006 g/ml was harvested. KBr was added to the fraction thus obtained to adjust specific gravity to d=1.063 g/ml and density gradient centrifugation (227,000×g, 4° C., 20 hours) was conducted to harvest the fraction with specific gravity […]. The thus-obtained fraction was dialyzed against the above PBS solution to obtain fractions containing IDL and LDL (specific gravity: 1.006<d<1.063), which served as acceptor lipoprotein.
Samples were suspended in a 0.5% methylcellulose solution and administered orally using a plastic probe to transgenic mice having introduced human CETP gene (hereafter referred to as mice; prepared using the method described in Japanese Patent Application No. Hei 8-130660), which had been fasted overnight. Blood was collected before administration, and 6 hours after administration CETP activity in the plasma was determined using the following method.
Donor lipoprotein ([^3H]CE-HDL3, containing 0.21 μg cholesterol) obtained in the above (1), acceptor lipoprotein obtained in the above (2) (containing 21 μg of cholesterol), and 0.9 μl of mice plasma were added to microtubes. A total volume was adjusted to 600 μl/tube with a TBS solution [10 mM Tris/0.15 M NaCl (pH 7.4)]. The microtubes were incubated for 15 hours at 37° C. or 4° C. Then, an ice-cooled TBS solution (400 μl/tube) and a 0.3% dextran sulfate solution (100 μl/tube) containing 0.15 M magnesium chloride were added to the microtubes and mixed well. After allowing the microtubes to stand for 30 minutes at 4° C., centrifugation (8,000 rpm, 4° C., 10 minutes) was carried out and radioactivity of the resulting supernatant (HDL fraction) was determined with a scintillation counter.

CETP [2] = target: T1, CETP; assay: In vitro CETP activity inhibitory effect in whole plasma; assay type: biochemical; set-up: Plasma containing [^3H]CE-HDL3 (600,000 dpm/ml) was prepared by adding donor lipoprotein obtained in the above (1) to plasma from healthy subjects; from tissue; host or cells: whole plasma of healthy subjects; conditions: plasma from healthy subjects containing [3H]CE-HDL3, incubated 4 hours at 37° C.; read-out: CETP activity inhibition in whole plasma IC50
Summary of the method: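 HDL3 was labelled with tritiated cholesterol (10 nM) for 18 h at 37° C in PBS with EDTA (pH 7.4). Test samples were in 1:1 N-methylpyrrolidone/PEG 400 and assayed in whole plasma. IC50 was calculated from % inhibition of CETP activity.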

Structure (SMILES) | inhibition at 30 mg/kg (CETP [1]) | IC50 (CETP [2]) | inhibition at 100 mg/kg (CETP [1]) | inhibition at 10 mg/kg (CETP [1]) | inhibition at 300 mg/kg (CETP [1]; 300 mg/kg)
COc1ccc(NC(=O)Sc2ccccc2NC(=O)C2(CCC(C)C)CCCCC2)cc1 [Example 25-100] | 25% | 16 µM | – | – | –
CC(C)CCC1(C(=O)Nc2ccccc2SC(=O)N(C(=O)Nc2ccccc2)c2ccccc2)CCCCC1 [Example 25-101] | 8% | 7 µM | – | – | –
CC(C)CCC1(C(=O)Nc2cc(Cl)c(Cl)cc2SC(=O)NC(C)(C)C)CCCCC1 [Example 25-102] | – | 8 µM | 9% | – | –
CC(C)CCC1(C(=O)Nc2ccccc2SC(=O)NC(C)(C)C)CCCC1 [Example 25-105] | – | 6 µM | 14% | – | –
CC(C)CCC1(C(=O)Nc2ccccc2SC(=O)Nc2ccccc2)CCCC1 [Example 25-106] | 29% | 10 µM | – | – | –
COc1ccc(NC(=O)Sc2ccccc2NC(=O)C2(CCC(C)C)CCCC2)cc1 [Example 25-107] | 22% | 11 µM | – | – | –
CC(C)CCC1(C(=O)Nc2cc(Cl)c(Cl)cc2SC(=O)NC(C)(C)C)CCCC1 [Example 25-108] | – | 7 µM | 8% | – | –
CCC(CC)CC1(C(=O)Nc2ccccc2SC(=O)C(C)C)CCCCC1 [Example 26, S-[2-[1-(2-ethylbutyl)cyclohexanecarbonylamino]-phenyl]2-methylthiopropionate] | 44% | 7 µM | – | – | –
CC(C)CC1(C(=O)Nc2ccccc2SC(=O)C(C)C)CCCCC1 [Example 27, S-[2-(1-isobutylcyclohexanecarbonylamino)phenyl]2-methylthiopropionate] | 31% | 7 µM | – | – | –
CCC(CC)CC1(C(=O)Nc2ccccc2SC(=O)C2CCN(C(C)=O)CC2)CCCCC1 [Example 28, S[2-[1-(2-ethylbutyl)cyclohexanecarbonylamino)-phenyl]1-acetylpiperidine-4-thiocarboxylate] | 36% | 6 µM | – | – | –
CC(C)CCC1(C(=O)Nc2ccccc2SC(=O)C(C)(C)C)CCCCC1 [Example 33] | 39% | 61 µM | 52% | 23% | 55%
CC(=O)N[C@@H](Cc1ccccc1)C(=O)Sc1ccccc1NC(=O)C1(CCC(C)C)CCCCC1 [Example 34] | 4% | 9 µM | – | – | –
CC(C)CCC1(C(=O)Nc2ccccc2SC(=O)CCl)CCCCC1 [Example 36] | 19% | 16 µM | – | – | –
COCC(=O)Sc1ccccc1NC(=O)C1(CCC(C)C)CCCCC1 [Example 37] | 42% | 7 µM | 47% | 18% | –
CCC(=O)Sc1ccccc1NC(=O)C1(CCC(C)C)CCCCC1 [Example 38] | 40% | 6 µM | – | 15% | –
CC(C)CCC1(C(=O)Nc2ccccc2SC(=O)COc2ccccc2)CCCCC1 [Example 39] | 41% | 11 µM | – | 17% | –
CC(C)CCC1(C(=O)Nc2ccccc2SC(=O)C(C)C)CCCCC1 [Example 40] | 48% | 23 µM | 64% | 20% | –
CC(C)CCC1(C(=O)Nc2ccccc2SC(=O)COc2ccc(Cl)cc2)CCCCC1 [Example 41] | 42% | 7 µM | – | 27% | –

Structure (SMILES) | inhibition at 30 mg/kg (CETP [1]) | IC50 (CETP [2]) | inhibition at 100 mg/kg (CETP [1]) | inhibition at 10 mg/kg (CETP [1]) | inhibition at 300 mg/kg (CETP [1]; 300 mg/kg)
CC(C)CCC1(C(=O)Nc2ccccc2SC(=O)C2CC2)CCCCC1 [Example 42] | 38% | 9 µM | – | 31% | –
CC(=O)N[C@@H](CCC(N)=O)C(=O)Sc1ccccc1NC(=O)C1(CCC(C)C)CCCCC1 [Example 45] | 36% | 7 µM | – | 18% | –
CC(C)CCC1(C(=O)Nc2ccccc2SC(=O)C(C)(C)O)CCCCC1 [Example 46] | 48% | 5 µM | – | 22% | –
CC(C)CCC1(C(=O)Nc2ccccc2SC(=O)C2(N)CCCCC2)CCCCC1 [Example 47] | 31% | 6 µM | – | – | –
CC(C)CCC1(C(=O)Nc2ccccc2SC(=O)C(C)(C)C)CCCC1 [Example 48] | 31% | 49 µM | 50% | – | –
CC(=O)Sc1ccccc1NC(=O)C1(CCC(C)C)CCCC1 [Example 49] | 29% | 6 µM | – | – | –
CC(C)CCC1(C(=O)Nc2cc(C(F)(F)F)ccc2SC(=O)C(C)(C)C)CCCCC1 [Example 52] | 8% | 8 µM | – | – | –
CC(C)CCC1(C(=O)Nc2ccccc2SC(=O)Nc2ccccc2)CCCCC1 [Example 56] | 34% | 13 µM | – | – | –
CCC(CC)CC1(C(=O)Nc2ccccc2SC(C)=O)CCCCC1 [Example 59] | 44% | 4 µM | – | – | –
CCC(CC)CC1(C(=O)Nc2ccccc2SC(=O)C(C)(C)C)CCCCC1 [Example 60] | 44% | 41 µM | – | – | –
CCC(CC)CC1(C(=O)Nc2ccccc2SC(=O)COC)CCCCC1 [Example 61] | 38% | 4 µM | – | – | –
CCC(CC)CC1(C(=O)Nc2ccccc2SC(=O)C(C)(C)O)CCCCC1 [Example 62] | 38% | 4 µM | – | – | –
CCC(CC)CC1(C(=O)Nc2ccccc2SC(=O)COc2ccc(Cl)cc2)CCCCC1 [Example 63] | 43% | 4 µM | – | – | –
CC(C)CC1(C(=O)Nc2ccccc2SC(=O)COc2ccc(Cl)cc2)CCCCC1 [Example 64] | 34% | 4 µM | – | – | –
CC(C)CCC1(C(=O)Nc2cc([N+](=O)[O-])ccc2SC(=O)C(C)(C)C)CCCCC1 [Example 74] | 5% | 14 µM | – | – | –
CC(C)CCC1(C(=O)Nc2cc(C#N)ccc2SC(=O)C(C)(C)C)CCCCC1 [Example 75] | 1% | 25 µM | – | – | –
CC(C)CCC1(C(=O)Nc2cc(Cl)ccc2SC(=O)C(C)(C)C)CCCCC1 [Example 76] | 4% | 18 µM | – | – | –
CC(C)CCC1(C(=O)Nc2ccc(Cl)cc2SC(=O)C(C)(C)C)CCCCC1 [Example 77] | 1% | 17 µM | – | – | –
